Data from US7858644B2, “EP4 receptor antagonists” (Asterand UK Limited, priority 2003, dated 2010).

Tests used:
human EP3 receptor = target: T1, human EP3 receptor (Homo sapiens, UniProt P43115); test: Binding ability to human EP3 receptor ([3H]PGE2 displacement); conditions: membranes from cells stably transfected with human EP receptor cDNA; [3H]PGE2 2.5 nM; Cheng-Prusoff from IC50; read-out: pKi EP3 (converted)
T1 construct: expressed in transfected cells
T1 sequence (P43115 1-390): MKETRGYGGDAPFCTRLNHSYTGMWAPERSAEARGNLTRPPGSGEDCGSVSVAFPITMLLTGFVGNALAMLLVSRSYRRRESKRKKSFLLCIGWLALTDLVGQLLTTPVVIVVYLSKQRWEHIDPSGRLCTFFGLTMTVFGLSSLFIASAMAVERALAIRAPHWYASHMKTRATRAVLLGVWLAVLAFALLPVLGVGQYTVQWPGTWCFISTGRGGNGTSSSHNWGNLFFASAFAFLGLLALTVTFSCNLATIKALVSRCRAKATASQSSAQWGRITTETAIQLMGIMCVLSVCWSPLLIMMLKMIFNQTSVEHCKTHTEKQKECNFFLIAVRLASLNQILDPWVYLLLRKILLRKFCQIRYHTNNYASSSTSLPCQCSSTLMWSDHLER
Procedure: (§1) Membranes were prepared from cells stably transfected with human EP receptor cDNA. In brief, cells were cultured to confluency, scraped from culture flasks, and centrifuged (800 g, 8 minutes, 4° C.). Cells were twice washed in ice cold homogenisation buffer containing 10 mMTris-HCl, 1 mM EDTA. 2Na, 250 mM sucrose, 1 mM PMSF, 0.3 mM indomethacin, pH 7.4, homogenised and re-centrifuged as before. The supernatant was stored on ice and pellets re-homogenised and re-spun. Supernatants were pooled and centrifuged at 40000 g, 10 minutes, 4° C. Resultant membrane pellets were stored at −80° C. until use.
(§2) For assay, membranes expressing human EP4, EP3, EP2 or EP1 receptors were incubated in Millipore (MHVBN45) plates containing assay buffer, radiolabelled [^3H]PGE2 and 0.1 to 10 000 nM concentrations of compounds. Incubations were performed at suitable temperatures and for suitable times to allow equilibrium to be reached. Non-specific binding was determined in the presence of 10 uM PGE2. Bound and free radiolabel was separated by vacuum manifold filtration using appropriate wash buffers, and bound radiolabel was determined by scintillation counting. Constituents of each of the buffers are included in table 1 below.
(§3) This approach follows that set out in Kenakin, T. P., Pharmacologic analysis of drug receptor interaction. Raven Press, New York, 2nd edition.

human EP2 receptor = target: T2, human EP2 receptor (Homo sapiens, UniProt P43116); test: Binding ability to human EP2 receptor ([3H]PGE2 displacement); conditions: read-out: pKi EP2 (converted)
T2 construct: expressed in transfected cells
T2 sequence (P43116 whole entry): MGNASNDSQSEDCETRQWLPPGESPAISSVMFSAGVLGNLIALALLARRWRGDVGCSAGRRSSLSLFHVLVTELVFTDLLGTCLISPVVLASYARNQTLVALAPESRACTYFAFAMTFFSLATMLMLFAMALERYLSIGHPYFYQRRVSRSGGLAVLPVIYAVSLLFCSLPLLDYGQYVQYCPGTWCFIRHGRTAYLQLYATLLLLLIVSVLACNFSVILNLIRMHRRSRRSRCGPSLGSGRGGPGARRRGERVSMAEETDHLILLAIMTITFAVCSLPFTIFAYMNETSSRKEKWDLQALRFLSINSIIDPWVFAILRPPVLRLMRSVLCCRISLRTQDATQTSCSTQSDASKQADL
Procedure: as §1, §2, §3

human EP4 receptor = target: T3, human EP4 receptor (Homo sapiens, UniProt P35408); test: Binding ability to human EP4 receptor ([3H]PGE2 displacement); conditions: read-out: pKi EP4 (converted)
T3 construct: expressed in transfected cells
T3 sequence (P35408 whole entry): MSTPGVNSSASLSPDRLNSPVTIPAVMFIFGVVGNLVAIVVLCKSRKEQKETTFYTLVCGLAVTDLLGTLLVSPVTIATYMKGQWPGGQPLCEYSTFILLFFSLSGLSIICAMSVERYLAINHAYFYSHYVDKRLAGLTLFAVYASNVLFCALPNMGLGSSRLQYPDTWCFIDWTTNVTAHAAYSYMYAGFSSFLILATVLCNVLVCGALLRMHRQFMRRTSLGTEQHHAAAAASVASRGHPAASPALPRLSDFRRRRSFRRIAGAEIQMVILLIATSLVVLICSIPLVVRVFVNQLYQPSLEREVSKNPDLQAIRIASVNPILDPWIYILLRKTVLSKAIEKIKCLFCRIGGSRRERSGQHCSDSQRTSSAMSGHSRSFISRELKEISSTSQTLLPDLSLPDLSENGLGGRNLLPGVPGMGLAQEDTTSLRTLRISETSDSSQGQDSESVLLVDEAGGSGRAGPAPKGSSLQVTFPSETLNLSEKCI
Procedure: as §1
Incubations were performed at suitable temperatures and for suitable times to allow equilibrium to be reached. Non-specific binding was determined in the presence of 10 uM PGE2. Bound and free radiolabel was separated by vacuum manifold filtration using appropriate wash buffers, and bound radiolabel was determined by scintillation counting. Constituents of each of the buffers are included in table 1 below.
as §3

Row | SMILES | Ki (human EP3 receptor) [µM] | Ki (human EP2 receptor) [µM] | Ki (human EP4 receptor) [µM]
1 | Cc1oc(S(=O)(=O)NC(=O)c2cccs2)cc1COc1ccc(-c2ccccc2)cc1 [Compound 64, 4-(Biphenyl-4-yloxymethyl)-5-methyl-furan-2-sulphonic acid (thiophene-2-carbonyl)-amide] | > 10 | > 10 | < 0.1
2 | Cc1oc(S(=O)(=O)NC(=O)c2ccncc2)cc1COc1ccc(-c2ccccc2)cc1 [Compound 67, 4-(Biphenyl-4-yloxymethyl)-5-methyl-furan-2-sulphonic acid (pyridine-4-carbonyl)-amide] | > 10 | > 10 | < 1
3 | Cc1oc(S(=O)(=O)NC(=O)c2cccnc2)cc1COc1ccc(-c2ccccc2)cc1 [Compound 68, 4-(Biphenyl-4-yloxymethyl)-5-methyl-furan-2-sulphonic acid (pyridine-3-carbonyl)-amide] | > 10 | > 10 | < 1
4 | COc1ccc(-c2ccc(OCCc3cc(C(=O)O)oc3C)cc2)cc1 [Compound 73, 4-[2-(4′-Methoxy-biphenyl-4-yloxy)-ethyl]-5-methyl-furan-2-carboxylic acid] | > 10 | > 10 | < 3.16
5 | Cc1oc(C(=O)O)cc1CCOc1ccc2c(c1)oc1ccccc12 [Compound 74, 4-[2-(Dibenzofuran-3-yloxy)-ethyl]-5-methyl-furan-2-carboxylic acid] | > 10 | > 10 | < 3.16
6 | O=C(O)c1cc(COc2ccc3oc4ccccc4c3c2)co1 [Compound 78, 4-(Dibenzofuran-2-yloxymethyl)-furan-2-carboxylic acid] | > 10 | > 3.16 | < 10
7 | N#Cc1ccc(-c2ccc(OCc3coc(C(=O)O)c3)cc2)cc1 [Compound 79, 4-(4′-Cyano-biphenyl-4-yloxymethyl)-furan-2-carboxylic acid] | > 10 | > 10 | < 3.16
8 | COc1ccc(-c2ccc(OCc3coc(C(=O)O)c3)cc2)cc1 [Compound 80, 4-(4′-Methoxy-biphenyl-4-yloxymethyl)-furan-2-carboxylic acid] | > 10 | > 10 | < 0.316
9 | O=C(O)c1cc(COc2ccc3c(c2)oc2ccccc23)co1 [Compound 81, 4-(Dibenzofuran-3-yloxymethyl)-furan-2-carboxylic acid] | > 10 | > 3.16 | < 3.16
10 | COc1ccc(-c2ccc(OCc3cc(C(=O)O)oc3C(C)C)cc2)cc1 [Compound 86, 5-Isopropyl-4-(4′-methoxy-biphenyl-4-yloxymethyl)-furan-2-carboxylic acid] | > 10 | > 10 | < 1
11 | CC(C)c1oc(C(=O)O)cc1COc1ccc2c(c1)oc1ccccc12 [Compound 87, 4-(Dibenzofuran-3-yloxymethyl)-5-isopropyl-furan-2-carboxylic acid] | > 10 | > 10 | < 3.16
12 | O=C(O)c1cc(COc2cccc(-c3ccccc3)c2)c(C(F)(F)F)o1 [Compound 91, 4-(Biphenyl-3-yloxymethyl)-5-trifluoromethyl-furan-2-carboxylic acid] | > 10 | > 10 | < 3.16
13 | O=C(O)c1cc(COc2ccc3oc4ccccc4c3c2)c(C(F)(F)F)o1 [Compound 92, 4-(Dibenzofuran-2-yloxymethyl)-5-trifluoromethyl-furan-2-carboxylic acid] | > 10 | > 10 | < 3.16
14 | N#Cc1ccc(-c2ccc(OCc3cc(C(=O)O)oc3C(F)(F)F)cc2)cc1 [Compound 93, 4-(4′-Cyano-biphenyl-4-yloxymethyl)-5-trifluoromethyl-furan-2-carboxylic acid] | > 10 | > 10 | < 3.16
15 | COc1ccc(-c2ccc(OCc3cc(C(=O)O)oc3C(F)(F)F)cc2)cc1 [Compound 94, 4-(4′-Methoxy-biphenyl-4-yloxymethyl)-5-trifluoromethyl-furan-2-carboxylic acid] | > 10 | > 10 | < 0.316
16 | O=C(O)c1cc(COc2ccc3c(c2)oc2ccccc23)c(C(F)(F)F)o1 [Compound 95, 4-(Dibenzofuran-3-yloxymethyl)-5-trifluoromethyl-furan-2-carboxylic acid] | > 10 | > 3.16 | < 3.16

Continued, values first:

Row | Ki (human EP3 receptor) [µM] | Ki (human EP2 receptor) [µM] | Ki (human EP4 receptor) [µM] | SMILES
17 | > 10 | > 10 | < 0.316 | CCOc1ccc(-c2ccc(OCc3cc(C(=O)O)oc3C)cc2)cc1 [Compound 98, 4-(4′-Ethoxy-biphenyl-4-yloxymethyl)-5-methyl-furan-2-carboxylic acid]
18 | > 10 | > 3.16 | < 1 | Cc1oc(C(=O)O)cc1COc1ccc(-c2ccccc2Cl)cc1 [Compound 99, 4-(2′-Chloro-biphenyl-4-yloxymethyl)-5-methyl-furan-2-carboxylic acid]
19 | > 10 | > 10 | < 3.16 | Cc1oc(C(=O)O)cc1COc1ccc(-c2c(F)cccc2F)cc1 [Compound 100, 4-(2′,6′-Difluoro-biphenyl-4-yloxymethyl)-5-methyl-furan-2-carboxylic acid]
20 | > 10 | > 3.16 | < 3.16 | Cc1oc(C(=O)O)cc1COc1ccc(-c2ccccc2C(F)(F)F)cc1 [Compound 102, 5-Methyl-4-(2′-trifluoromethyl-biphenyl-4-yloxymethyl)-furan-2-carboxylic acid]
21 | > 10 | > 3.16 | < 1 | Cc1oc(C(=O)O)cc1COc1ccc(-c2cccc(F)c2)cc1 [Compound 104, 4-(3′-Fluoro-biphenyl-4-yloxymethyl)-5-methyl-furan-2-carboxylic acid]
22 | > 10 | > 10 | < 3.16 | CSc1ccccc1-c1ccc(OCc2cc(C(=O)O)oc2C)cc1 [Compound 105, 5-Methyl-4-(2′-methylsulfanyl-biphenyl-4-yloxymethyl)-furan-2-carboxylic acid]
23 | > 10 | > 10 | < 3.16 | COc1ccc(-c2cccc(OCc3cc(C(=O)O)oc3C)c2)cc1OC [Compound 108, 4-(3′,4′-Dimethoxy-biphenyl-3-yloxymethyl)-5-methyl-furan-2-carboxylic acid]
24 | > 10 | > 10 | < 3.16 | Cc1oc(C(=O)O)cc1COc1cccc(-c2cccc(C(F)(F)F)c2)c1 [Compound 109, 5-Methyl-4-(3′-trifluoromethyl-biphenyl-3-yloxymethyl)-furan-2-carboxylic acid]
25 | > 10 | > 10 | < 3.16 | CSc1ccc(-c2ccc(OCc3cc(C(=O)O)oc3C)cc2)cc1 [Compound 111, 5-Methyl-4-(4′-methylsulphanyl-biphenyl-4-yloxymethyl)-furan-2-carboxylic acid]
26 | > 10 | > 10 | < 3.16 | Cc1oc(C(=O)O)cc1COc1ccc(-c2cccc(O)c2)cc1 [Compound 112, 4-(3′-Hydroxy-biphenyl-4-yloxymethyl)-5-methyl-furan-2-carboxylic acid]
27 | > 10 | > 10 | < 10 | Cc1oc(C(=O)O)cc1COc1ccc(-c2ccc(N(C)C)cc2)cc1 [Compound 113, 4-(4′-Dimethylamino-biphenyl-4-yloxymethyl)-5-methyl-furan-2-carboxylic acid]
